Source: US11865176B2, “Compositions and methods of modulating anti-tumor immunity” (Dana-Farber Cancer Institute, Inc., priority 2016, dated 2024)

System: PD-1-overexpressing Jurkat cells
Assay: Small molecule screen: IL2 secretion (AlphaLISA) from stimulated PD-1-overexpressing Jurkat cells
Assay type: cell-based, human
Settings: 3.3 μM compound; for Zscore_1 / Zscore_2: IL2 level, α-CD3/α-CD28/α-PD-1 beads; for Zscore_1: replicate 1; for Zscore_2: replicate 2; for Zscore_AVG: average of replicate Z scores
Procedure: PD-1-overexpressing Jurkat cells were plated at a concentration of 100,000 cells/well in a total volume of 80 μl. […] Dynabeads conjugated to α-CD3, α-CD28, and α-PD-1 antibodies were added in 20 for a final assay volume of 100 with a final compound concentration of 3.3 μM and an 8:1 bead:cell ratio. Beads were conjugated to α-CD3/α-CD28/control IgG and added to wells containing DMSO-treated cells as a positive control, while beads conjugated to α-CD3/α-CD28/α-PD1 were added to wells containing DMSO-treated cells as a negative control. Supernatants from each well were analyzed for IL2 levels by AlphaLISA (Perkin Elmers) according to the manufacturer's protocol. Average and standard deviation values were calculated from the PD-1 controls (DMSO-treated cells stimulated with α-CD3/α-CD28/α-PD-1 beads); hits were defined as compounds scoring at least 3 standard deviations from the mean of the controls.
In addition to known negative regulators of IL-2 production (e.g. glycogen synthase kinase-3α/β (GSK3α/β) (24,25)), this screen identified cyclin-dependent kinases 4 and 6 inhibitors (CDK4/6i) as top hits (Table 1).

`CC#CC(=O)Nc1cc2c(Nc3ccc(F)c(Cl)c3)ncnc2cn1` [EGFR/ErbB-2/ErbB-4 Inhibitor] showed a Zscore_1 of 0.4572, a Zscore_2 of 0.3338 and a Zscore_AVG of 0.3955.

`COc1cc2c(cc1OC)-c1[nH]nc(Nc3cccc(F)c3)c1C2` [PDGF Receptor Tyrosine Kinase Inhibitor IV] was tested, and the Zscore_1 was −0.8894, the Zscore_2 was −1.508 and the Zscore_AVG was −1.199.

`CCN1/C(=C/C(C)=O)Sc2ccc(OC)cc21` [Cdc2-Like Kinase Inhibitor, TG003] was tested, and the Zscore_1 was −1.367, the Zscore_2 was −2.423 and the Zscore_AVG was −1.895.

Compound `CN1C(=O)C(Cc2c[nH]c3ccccc23)NC1=S` (stereo not drawn) [Necrostatin-1] has a Zscore_1 of −1.566, a Zscore_2 of 1.447 and a Zscore_AVG of −0.05934.

In the case of `O=C1Cc2c([nH]c3ccc([N+](=O)[O-])cc23)-c2ccccc2N1` [Alsterpaullone], the Zscore_1 is reported as −0.7783, the Zscore_2 is reported as −3.341 and the Zscore_AVG is reported as −2.06.

With `O=C1Nc2ccccc2/C1=C1/Nc2ccccc2/C1=N\OCC(O)CO` (stereo not drawn) [Indirubin Derivative E804] the Zscore_1 was 20.78, the Zscore_2 was 24.43 and the Zscore_AVG was 22.6.

Compound `Nc1[nH]nc2nnc(-c3c(-c4ccccc4)nn4ccccc34)cc12` [ERK Inhibitor II, FR180204] has a Zscore_1 of −2.073, a Zscore_2 of −4.806 and a Zscore_AVG of −3.439.

`N#Cc1cc([N+](=O)[O-])c2sc(C(N)=O)[n+]([O-])c2c1` [Polo-like Kinase Inhibitor II, BTO-1] showed a Zscore_1 of −1.795, a Zscore_2 of −0.518 and a Zscore_AVG of −1.156.

`O=C1C(Cl)=C(N2C(=O)CCC2=O)C(=O)c2ccccc21` [MEK Inhibitor II] showed a Zscore_1 of −2.22, a Zscore_2 of −1.364 and a Zscore_AVG of −1.792.

`CN(C)c1ccc(/C=C2\C(=O)Nc3ccccc32)cc1` [DMBI] was tested, and the Zscore_1 was −0.2169, the Zscore_2 was 0.4405 and the Zscore_AVG was 0.1118.

In the case of `CN[C@@H]1C[C@H]2O[C@@](C)([C@@H]1OC)n1c3ccccc3c3c4c(c5c6ccccc6n2c5c31)C(=O)N[C@@H]4O` [UCN-01], the Zscore_1 is reported as −7.46, the Zscore_2 is reported as −8.298 and the Zscore_AVG is reported as −7.879.

For PIM1/2 Kinase Inhibitor V, the Zscore_1 was −0.917, the Zscore_2 was 0.2008 and the Zscore_AVG was −0.3581.

`N#CC(C#N)=C(N)/C(C#N)=C/c1ccc(O)cc1` [AG 112] showed a Zscore_1 of −1.54, a Zscore_2 of −3.816 and a Zscore_AVG of −2.678.

With `O=C(O)c1ccc2c3c1cccc3c(=O)n1c3ccccc3nc21` [STO-609] the Zscore_1 was −1.71, the Zscore_2 was −1.025 and the Zscore_AVG was −1.368.

Compound `c1ccc2c(-c3ccncc3)c[nH]c2c1` [Rho Kinase Inhibitor III, Rockout] has a Zscore_1 of −0.1806, a Zscore_2 of −2.59 and a Zscore_AVG of −1.385.

With `Cc1cc(Nc2nc(-c3ccccc3)nc3ccccc23)n[nH]1` [GSK-3 Inhibitor XIII] the Zscore_1 was −2.535, the Zscore_2 was −3.925 and the Zscore_AVG was −3.23.

`Cc1nc2cc3nc(-c4cccs4)cnc3cc2n1C` [AGL 2043] showed a Zscore_1 of −0.2488, a Zscore_2 of 1.253 and a Zscore_AVG of 0.5019.

For `COc1ccc(CNc2nc(N(CCO)CCO)nc3c2ncn3C(C)C)cc1` [Cdk2 Inhibitor III], the Zscore_1 was −2.414, the Zscore_2 was −4.745 and the Zscore_AVG was −3.58.

`CC(=O)c1ccc(N2CCOCC2)cc1O` [DNA-PK Inhibitor III] gave a Zscore_1 of 5.18, a Zscore_2 of 6.23 and a Zscore_AVG of 5.705.

`N#Cc1c(NC(=O)c2cccc3ccccc23)sc2c1CCCC2` [JNK Inhibitor IX] showed a Zscore_1 of 0.5842, a Zscore_2 of −0.05285 and a Zscore_AVG of 0.2657.

For PIM1 Kinase Inhibitor IV, the Zscore_1 was −1.455, the Zscore_2 was −0.7294 and the Zscore_AVG was −1.092.

`CCCCn1c2ccc(O)cc2c2c3c(c(-c4ccccc4Cl)cc21)C(=O)NC3=O` [Wee1 Inhibitor II] gave a Zscore_1 of 0.7541, a Zscore_2 of −1.786 and a Zscore_AVG of −0.5162.
